Test results: patent US9487561B2, “Biologically active complex and its preparation” (HAMLET PHARMA AB, priority 2010, dated 2016)
Entries after “also recorded” stand apart in the source; their conditions may differ.

Key:
[1] = tested on: A549 lung carcinoma cells; assay: cell death assay (trypan blue exclusion, ATP levels); assay type: cell-based, human; conditions: for effect of p38 inhibitor on death in response to HAMLET: SB202190 20 μM or BIRB796 10 μM, HAMLET 3 h
Protocol: (§1) Cells were detached from cell culture flasks with versen (0.2 g EDTA in 200 ml H2O and 800 ml PBS), washed with PBS and resuspended in serum-free RPMI-1640. HAMLET dissolved in PBS was incubated with cells (0.5×10^6/ml for A549, A498 and HeLa cells; 1×10^6/ml for Jurkat) at 37° C. FCS was added after 1 hour. Cell death was quantified by trypan blue exclusion (Chroma Gesellschaft Schmid & Co) or by measuring ATP levels (ATPlite Kit, PerkinElmer, Infinite 200, Tecan). Light images were captured using the HOLOMONITOR™ M2 digital holographic microscope (Phase Holographic Imaging AB, Lund, Sweden).
(§2) For studies with inhibitors, cells were pretreated for 30 minutes. Inhibitors used were Gadolinium chloride (GdCl3, 100 μM), Barium chloride (BaCl2, 1 mM), Ruthenium red (30 μM), tetrandrine (10 μM) and amiloride (1 mM), all from Sigma Aldrich. For p38 inhibition, SB202190 (20 μM, Sigma Aldrich) or BIRB796 (10 μM, Axon Medchem) dissolved in DMSO was used. The wells were washed twice with PBS and new medium with inhibitor was added. For RNA interference, FlexiTube siRNA Premixes against MAPK11 (SI00606053), MAPK14 (SI00300769) and All Star Negative Control siRNA (SI03650318) from Qiagen was used. A549 forward was transfected using 25 nM final siRNA concentration in 24-well plate. After 48 hours, knockdown was examined by Western blot (anti-p38, 1:1000, Cell Signaling) and RT-PCR (MAPK14, QT00079345, QIAGEN).
(§3) To examine if functional ion channels are important for the tumoricidal activity of HAMLET, A549 lung carcinoma cells in suspension were pretreated with the channel inhibitors for 30 minutes and exposed to increasing concentrations of HAMLET for three hours.
A549 cells were seeded to a density of 0.8-1.0×10^6 cells/well in RPMI without FCS. Different volumes of HAMLET/oleate and oleic acid solutions were added. The cells were incubated for 1 hour at 37° C. 5% CO2 for 1 hour before 50 μl of FCS (5% final concentration) were added to the wells. The cells were then further incubated for additional 2 hours before the viability were determined by trypan blue exclusion and ATP measurements.

[2] = tested on: kidney carcinoma (A498) cells; assay: cell death assay with p38 inhibitors; assay type: cell-based, human; conditions: SB202190 20 μM or BIRB796 10 μM; HAMLET 3 h
Protocol: FIG. 4. p38 inhibition rescues carcinoma and lymphoma cells from death and morphological change in response to HAMLET. (A, B) p38 inhibition (SB202190, 20 μM) rescued carcinoma (A549 and A498) and T-cell lymphoma (Jurkat) cells from death in response to HAMLET (7-49 μM, 3 h). Viability was quantified by Trypan blue exclusion (A) or as ATP levels (B). Data are means+SEMs for 3 independent experiments. (C) Real-time images of cell morphology after HAMLET exposure, showing that p38 inhibition prevents morphological changes in carcinoma cells (nuclear condensation, rounding up and blebbing). (D-E) A549 lung carcinoma cells were transfected using siRNA against p38α/MAPK14 and/or p38β/MAPK11 or non-targeting siRNA. Relative MAPK11 and MAPK14 mRNA levels are shown (MAPK/GAPDH, in % of non-transfected cells) as means+SEMs for 4 independent experiments. […] (F) The cytotoxic effect of HAMLET was quantified 48 hours after transfection as reduction in ATP levels. […]
FIG. 12. […] Viability was quantified by ATP levels.
Cells were detached from cell culture flasks with versen (0.2 g EDTA in 200 ml H2O and 800 ml PBS), washed with PBS and resuspended in serum-free RPMI-1640. […] Cell death was quantified by trypan blue exclusion (Chroma Gesellschaft Schmid & Co) or by measuring ATP levels (ATPlite Kit, PerkinElmer, Infinite 200, Tecan). […]

[3] = tested on: lung carcinoma, kidney carcinoma and lymphoma cells; assay: HAMLET-induced change in cell morphology (light microscopy, real-time imaging); assay type: cell-based
Protocol: as §1
For live cell imaging, cells were pre-treated with SB202190 for 30 minutes, nuclei were stained with Hoechst 33342 (Invitrogen) and Alexa-Fluor 568-labeled HAMLET (10% labeled HAMLET, Molecular Probes) was added in serum-free medium. FCS was added after 1 hour. Fluorescence was detected with pinhole settings corresponding to 1 airy unit. The cells were kept at 37° C., 5% CO2 and examined unfixed by LSM510 DUO confocal microscopy (Carl Zeiss).
To examine if the HAMLET-induced change in carcinoma cell morphology was modified by the channel inhibitors, lung carcinoma, kidney carcinoma and lymphoma cells were exposed to HAMLET in the presence or absence of ion channel inhibitors and examined by light microscopy (FIG. 2C).
To determine if p38 signaling was involved in cell death, we inhibited p38α and p38β in lung and kidney carcinoma and Jurkat lymphoma cells with two small-molecule p38 inhibitors: SB202190, a highly specific pyridinyl-imidazole inhibitor; and BIRB796, a diaryl urea compound, which bears little structural similarity to SB202190 (Fabian et al., 2005, Nature Biotechnology 23: 329-336), ([…] and FIG. 12B). […] The effect of p38 inhibition on cell death was also observed by real-time confocal imaging of lung carcinoma cells exposed to fluorescently labeled HAMLET.

[4] = tested on: lung carcinoma cells (A549); assay: intracellular Ca^2+, Fluo-4, real time confocal microscopy; assay type: cell-based, human
Protocol: To examine if HAMLET modulates ion channel activity in tumor cells, we first quantified changes in intracellular Ca^2+ and K^+. Lung carcinoma cells were first preloaded with the Fluo-4 Ca^2+ fluorophore Fluo-, exposed to HAMLET (35 μM) and examined by real time confocal microscopy for changes in fluorescence intensity (FIG. 1A). The Ca^2+ ionophore A23187, which acts as a Ca^2+ shuttle across cell membranes, was used as a positive control (Abbott et al., 1979, Antimicrobial Agents and Chemotherapy 16, 808-812).
(§4) To distinguish Ca^2+ mobilization from intracellular stores from the influx of extracellular Ca^2+, EGTA was then added to the cell medium. […] K^+ fluxes across tumor cell membranes were subsequently quantified under the same experimental conditions, using the fluorophore FLUXOR™, which fluoresces after thallium has entered cells through K^+ channels.
(§5) To further characterize ion channel activation by HAMLET, carcinoma cells were pretreated with defined channel blockers. Amiloride is a sodium channel inhibitor with effects on mechanosensitive channels, barium chloride (BaCl2) is a general K^+ channel inhibitor, gadolinium chloride (GdCl3) inhibits mechanosensitive channels, Ruthenium red is a general Ca^2+ inhibitor and tetrandrine inhibits large conductance, Ca^2+ activated K^+ channels. The carcinoma cells were preincubated with Fluo-4 as described above, pretreated with each of the channel inhibitors for 30 minutes, exposed to HAMLET (35 μM) and examined by real time confocal imaging. Furthermore, cells treated with EGTA were compared to cells with intact extracellular Ca^2+ levels, to distinguish the early peak from the subsequent influx of Ca^2+ (FIG. 1B, Table in FIG. 8).

[5] = tested on: Human renal tubular epithelial cells (HRTEC); assay: Ca^2+ and K^+ levels in healthy, differentiated cells in primary culture; assay type: cell-based
Protocol: Human renal tubular epithelial cells (HRTEC) were preincubated with Fluo-4 as described, exposed to HAMLET (35 μM) and examined by real time confocal microscopy.
as §5

[6] = tested on: potassium channels in A549, lung carcinoma cell lines; assay: FLUXOR potassium (K^+) channel assay, Thallium (Tl^+) indicator; assay type: cell-based, human; conditions: carcinoma cells, 30 minutes pretreatment, HAMLET 35 μM
Protocol: The FLUXOR™ potassium (K^+) channel assay was performed on the TECAN infinite F200 (Tecan Group, Switzerland), according to the manufacturer's instructions (Invitrogen). Briefly, this involved FLUXOR™ loading buffer (Hank's Balanced Saline Solution, (HBSS) buffered with 20 mM HEPES and pH adjusted to 7.4 with NaOH. POWERLOAD™ concentrate and water-soluble Probenecid were used respectively to enhance the dye solubility and retention, respectively. Media were removed from the cell plates manually, and 80 μL of loading buffer containing the FLUXOR™ dye mix was applied to each well. Once inside the cell, the nonfluorescent AM ester form of the FLUXOR™ dye is cleaved by endogenous esterases into a thallium-sensitive indicator. The dye was loaded for 60 minutes at room temperature and then removed with the supernatant. After washing with dye-free PBS buffer, a final volume of 80 μL assay buffer containing water-soluble probenecid was added. Cells received one of the following channel inhibitors: 3.3 μL per well of 30 mM amiloride, 3.0 μL of 32 mM BaCl2, 1.8 μL of 5.4 mM gadolinium, 3 μL 3.2 mM tetrandrine and 2.3 μL of 2.6 mM ruthenium red, and were then incubated at room temperature (23-25° C.) for 30 minutes to allow equilibration of the test compounds. Prior to injection, stimulation buffer was prepared from the chloride-free buffer and thallium reagents provided in the kit as well as HAMLET, to achieve a final added concentrations of 2 mM free Tl+ and 35 μM HAMLET after 1:5 dilution upon injection of the stimulus buffer onto cells that had been loaded with FLUXOR™ dye.
as §4
Potassium channel activity was therefore measured in A549, lung carcinoma cell lines using an indicator, which emits fluorescence signal upon entering the cells via opened potassium channels, Thallium (Tl^+) indicator (FIG. 18).

[7] = tested on: lymphoma cells (Jurkat cells); assay: cell death assay with inhibitors; assay type: cell-based; conditions: SB202190 20 μM; HAMLET 7-49 μM, 3 h
Protocol: GAPDH was used as a loading control.
as §1, §2, §3

[8] = tested on: p38, HSP27, ERK1/2 in kidney and lung carcinoma cells; assay: MAPK phosphorylation (phospho-MAPK antibody arrays, Western blot); assay type: cell-based, human
Description: Equal volumes of lysates were separated by SDS-PAGE on 4-12% Bis-Tris gels (Invitrogen) and blotted onto PVDF membranes. For other Western blots, 200,000 cells were allowed to adhere overnight in a 6-well plate. After HAMLET treatment the cells were washed with PBS and lysed in M-PER lysis buffer (Pierce) containing Complete protease inhibitor cocktail and PhosSTOP phosphatase inhibitor cocktail (both from Roche). The detached cells were collected by centrifugation. The lysates were cleared by centrifugation and protein concentrations were measured using the DC Protein Assay (Bio-Rad Laboratories, Hercules, Calif.). Equal amounts of protein were separated by SDS-PAGE on 4-12% Bis-Tris gels (Invitrogen) and blotted onto PVDF membranes (GE Healthcare). Membranes were saturated with BSA (GAPDH) or nonfat dry milk (phospho-p38, p38, phospho-ERK1/2, ERK1/2) and incubated with anti-p38, anti-phospho-p38, anti-ERK1/2, anti-phospho-(Thr202/Tyr204)-p44/42 (all 1:500-1000, Cell Signaling Technology), anti-ATF6 (1:1000, IMG-273, Imgenex), anti-phospho-eIF2α (Ser51), (1:500, Cell Signaling Technology) or anti-GAPDH (1:3000-5000, Novus Biologicals) antibodies followed by horseradish peroxidase-conjugated anti-rabbit (1:1000, DakoCytomation, Glostrup, Denmark) or anti-mouse (1:40000-50000, Novus Biologicals) antibodies for staining. Bound antibodies were detected with ECL Plus Western Blotting Reagent (GE Healthcare, Little Chalfont, UK) and GelDoc equipment (Bio-Rad Laboratories, Hercules, Calif.). If required, membranes were stripped with Restore Western Blot Stripping Buffer (Pierce, Rockford, Ill.), blocked and reprobed with new antibodies. MAP kinase phosphorylation was analyzed on a Human Phospho-MAPK array (Proteome Profiler Array, R&D Systems) as per the manufacturer's instruction. Band and spot intensities were quantified using ImageJ (Abramoff et al., July 2004, Biophotonics International). Cytokine quantification (IL6, IL8, TNFα) was performed on an […] 1000 immunoassay system (Siemens Diagnostics).
P38 MAPKs are activated by dual phosphorylation on conserved threonine and tyrosine residues by MKK3/6 and when phosphorylated, a wide variety of effector proteins, including MAPKAPK2 kinases, HSP27 chaperones and ATF2 and CHOP transcription factors become active (Cuenda et al., 2007, Biochimica et Biophysica Acta 1773: 1358-1375).

SMILES: Cc1ccc(-n2nc(C(C)(C)C)cc2NC(=O)Nc2ccc(OCCN3CCOCC3)c3ccccc23)cc1 [BIRB796]
- effect of p38 inhibitor on death in response to HAMLET [1]: rescued
- effect of p38 inhibitor on death in response to HAMLET [2]: rescued
- effect of p38 inhibitor on morphological changes associated with HAMLET induced cell death ([3]; BIRB796 10 μM, HAMLET 35 μM, 3 h): diminishes the morphological changes

SMILES: [Cl][Gd]([Cl])[Cl] [GdCl3, Gadolinium chloride, reference compound]
- effect of channel blocker on first, EGTA insensitive Ca^2+ peak in response to HAMLET ([4]; 30 minutes pretreatment, HAMLET 35 μM): inhibited
- effect of channel blocker on response to HAMLET in healthy cells [5]: no effect
- effect of channel blocker on K^+ flux in response to HAMLET [6]: strongly inhibited
- effect of channel inhibitor on HAMLET-induced cell death ([1]; 30 minutes pretreatment, HAMLET three hours): no effect on viability
- effect of ion channel inhibitor on HAMLET-induced change in cell morphology ([3]; light microscopy): did not prevent the morphological changes

SMILES: Oc1ccc(-c2nc(-c3ccncc3)c(-c3ccc(F)cc3)[nH]2)cc1 [SB202190]
- effect of p38 inhibitor on death in response to HAMLET [1]: rescued; also recorded: clearly attenuated
- effect of p38 inhibitor on death in response to HAMLET [7]: rescued
- effect of p38 inhibitor on death in response to HAMLET [2]: rescued
- effect of p38 inhibitor on p38 and HSP27 phosphorylation upon HAMLET treatment [8]: marked decrease in p38 and HSP27 phosphorylation

SMILES: CNc1ccc2oc(C[C@H]3O[C@@]4(CC[C@H]3C)O[C@H]([C@H](C)C(=O)c3ccc[nH]3)[C@H](C)C[C@H]4C)nc2c1C(=O)O [ionophore, reference compound]
- cells involved in Ca^2+ response [4]: all cells
- intracellular Ca^2+ response ([4]; HAMLET 35 μM): more drastic and sustained increase in intracellular Ca^2+ levels than HAMLET
- Ca^2+ response in HRTECs ([5]; HAMLET 35 μM): rapid and sustained increase in Ca^2+
